This passage reports molar enthalpy results from the NIST ThermoML archive (doi:10.1016/j.jct.2008.07.012).

This data set is described as follows: molar enthalpy of vaporization or sublimation. The note with it: 298.15 K; Crystal; Calvet Calorimetry.

Numbers after ± are expanded uncertainties.

With `O=[N+]([O-])c1ccc(Cl)cc1` [1-chloro-4-nitrobenzene], the molar enthalpy amounted to 18.2 ± 1 kcal/mol.

`O=[N+]([O-])c1cccc(Cl)c1` [1-chloro-3-nitrobenzene]: the molar enthalpy stood at 19.7 ± 0.717 kcal/mol.

For the compound `O=[N+]([O-])c1ccccc1Cl` [1-chloro-2-nitrobenzene], the molar enthalpy was 19.3 ± 0.717 kcal/mol.
